Test results from ChEMBL document CHEMBL5634128, “Development of chalcone-like derivatives and their biological and mechanistic investigations as novel influenza nuclear export inhibitors” (Eur J Med Chem, 2023).
pEC50, pKd: −log10 of the molar value. Where “and” joins values, the source holds several entries; their conditions need not be identical. Equal values may be shown once. Calls of active or inactive are those of the source. No cut-off for these calls is given here.

Columns and labels:
[1] = system: Fibroblast; test: (§1) Cytotoxicity against chicken embryo fibroblast cells assessed as reduction in cell growth at 50 uM by CCK-8 assay relative to control; format: toxicity, cell-based, Gallus gallus; design: Activity: scale not given: the % may be the effect or the level left; details: fibroblast, 50 µM
[2] = system: Influenza A virus; test: Anti-influenza activity against Influenza A virus A/Goose/Guangdong/SH7/2013 (H5N1) infected in chicken embryo fibroblast assessed as inhibition of virus-induced cytopathic effect; format: functional
[3] = system: Influenza A virus; test: Anti-influenza activity against Influenza A virus A/Brisbane/10/2007 infected in chicken embryo fibroblast assessed as reduction in viral growth; format: functional, organism-based; details: A/Brisbane/10/2007, Fibroblast
[4] = as §1; format: toxicity, cell-based, Gallus gallus; design: Activity: scale not given: the % may be the effect or the level left; details: chicken embryo fibroblast cells, read-out: Activity
[5] = system: Influenza A virus; test: Anti-influenza activity against Influenza A virus H5N8 infected in chicken embryo fibroblast assessed as reduction in viral growth; format: functional, organism-based
[6] = system: Influenza A virus; test: Anti-influenza activity against Influenza A virus A/PR/8/34 infected in chicken embryo fibroblast assessed as reduction in viral growth; format: functional, organism-based; details: A/PR/8/34, Fibroblast
[7] = system: Influenza A virus; test: Anti-influenza activity against Influenza A virus H5N1 infected in chicken embryo fibroblast assessed as reduction in viral growth; format: functional, organism-based
[8] = system: Influenza A virus; test: Anti-influenza activity against Influenza A virus B/Yamagata infected in chicken embryo fibroblast assessed as reduction in viral growth; format: functional, organism-based
[9] = system: Influenza A virus; test: Anti-influenza activity against Influenza A virus B/Victoria infected in chicken embryo fibroblast assessed as reduction in viral growth; format: functional, organism-based
[10] = Cytotoxicity against chicken embryo fibroblast cells assessed as reduction in cell growth by CCK-8; format: toxicity, cell-based, Gallus gallus
[11] = system: Influenza A virus; test: Anti-influenza activity against Influenza A virus pdm09 infected in chicken embryo fibroblast assessed as reduction in viral growth; format: functional, organism-based
[12] = Binding affinity to influenza A virus NS2 assessed as dissociation constant by SPR analysis
[13] = system: Influenza A virus; test: Anti-influenza activity against Influenza A virus A/Goose/Guangdong/SH7/2013 (H5N1) infected in chicken embryo fibroblast at MOI 1 assessed as reduction in NP expression in nucleus at 10 uM measured after 10 hr post infection by Western blot analysis; format: functional, organism-based
[14] = target: Nucleoprotein (Influenza A virus (strain A/Wilson-Smith/1933 H1N1), UniProt P15682); test: Binding affinity to influenza A virus Nucleoprotein assessed as dissociation constant by SPR analysis
Chain of Nucleoprotein (P15682 whole entry): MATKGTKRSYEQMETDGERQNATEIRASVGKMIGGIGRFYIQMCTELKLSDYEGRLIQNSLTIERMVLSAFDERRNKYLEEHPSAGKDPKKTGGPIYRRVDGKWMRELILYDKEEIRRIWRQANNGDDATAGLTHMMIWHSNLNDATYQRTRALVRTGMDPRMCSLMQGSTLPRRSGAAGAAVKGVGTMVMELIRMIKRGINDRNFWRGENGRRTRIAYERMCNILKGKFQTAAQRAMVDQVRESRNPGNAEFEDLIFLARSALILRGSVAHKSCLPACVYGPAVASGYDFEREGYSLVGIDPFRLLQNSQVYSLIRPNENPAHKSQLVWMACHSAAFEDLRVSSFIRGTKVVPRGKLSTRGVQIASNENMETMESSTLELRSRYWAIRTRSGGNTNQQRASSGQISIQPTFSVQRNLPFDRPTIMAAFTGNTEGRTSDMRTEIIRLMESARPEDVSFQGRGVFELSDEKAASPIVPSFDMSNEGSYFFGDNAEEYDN

[15] = Binding affinity to influenza A virus M1 assessed as dissociation constant by SPR analysis
[16] = system: Influenza A virus; test: Anti-influenza activity against Influenza A virus A/Goose/Guangdong/SH7/2013 (H5N1) infected in chicken embryo fibroblast at MOI 1 assessed as reduction in NP expression in cytoplasm at 10 uM measured after 10 hr post infection by Western blot analysis; format: functional, organism-based
[17] = target: Exportin-1 (Homo sapiens) (UniProt O14980); test: Inhibition of CRM1-mediated nuclear export in human A549 cells assessed as distribution of GFP-tagged AID in nucleus at 20 uM administered for 12 hrs and measured after 24 hrs by fluorescence microscopy analysis; format: cell-based; details: time 36.0 hrs
Chain of Exportin-1 (Homo sapiens) (O14980 whole entry): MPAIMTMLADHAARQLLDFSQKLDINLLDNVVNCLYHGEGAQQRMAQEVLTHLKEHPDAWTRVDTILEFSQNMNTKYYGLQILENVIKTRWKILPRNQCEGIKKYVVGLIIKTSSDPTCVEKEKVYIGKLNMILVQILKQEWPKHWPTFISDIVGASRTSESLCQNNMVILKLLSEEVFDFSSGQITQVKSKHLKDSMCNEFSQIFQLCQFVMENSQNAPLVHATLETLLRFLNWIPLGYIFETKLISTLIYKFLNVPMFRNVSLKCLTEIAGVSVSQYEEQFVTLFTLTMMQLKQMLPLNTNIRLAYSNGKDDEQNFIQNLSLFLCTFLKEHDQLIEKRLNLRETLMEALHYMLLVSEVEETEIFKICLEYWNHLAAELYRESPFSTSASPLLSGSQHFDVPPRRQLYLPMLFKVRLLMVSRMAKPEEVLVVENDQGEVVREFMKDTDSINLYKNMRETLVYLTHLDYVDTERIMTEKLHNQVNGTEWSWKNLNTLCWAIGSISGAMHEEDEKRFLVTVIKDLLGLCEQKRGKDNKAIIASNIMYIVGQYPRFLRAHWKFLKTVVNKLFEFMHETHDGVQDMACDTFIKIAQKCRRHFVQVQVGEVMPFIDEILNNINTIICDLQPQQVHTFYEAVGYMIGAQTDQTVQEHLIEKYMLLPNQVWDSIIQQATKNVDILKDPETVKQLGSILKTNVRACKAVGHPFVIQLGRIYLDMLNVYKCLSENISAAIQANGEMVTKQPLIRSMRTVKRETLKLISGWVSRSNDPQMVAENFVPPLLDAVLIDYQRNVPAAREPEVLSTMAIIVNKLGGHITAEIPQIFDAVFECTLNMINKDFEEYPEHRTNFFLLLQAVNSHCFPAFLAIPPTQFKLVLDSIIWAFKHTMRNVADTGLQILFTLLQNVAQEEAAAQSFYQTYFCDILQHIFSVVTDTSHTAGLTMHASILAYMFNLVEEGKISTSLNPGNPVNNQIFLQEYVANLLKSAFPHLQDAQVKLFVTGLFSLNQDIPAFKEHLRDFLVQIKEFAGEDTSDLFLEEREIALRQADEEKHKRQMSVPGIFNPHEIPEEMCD

[18] = system: Influenza A virus; test: Anti-influenza activity against Influenza A virus A/Goose/Guangdong/SH7/2013 (H5N1) infected in chicken embryo fibroblast at MOI 1 assessed as distribution of NP in nucleus at 10 uM measured after 10 hr post infection by DAPI staining based assay; format: functional, organism-based
[19] = target: Exportin-1 (Homo sapiens) (UniProt O14980); test: Inhibition of CRM1-mediated nuclear export in human A549 cells assessed as distribution of GFP-tagged AID in cytoplasm at 20 uM administered for 12 hrs and measured after 24 hrs by fluorescence microscopy analysis; format: cell-based
[20] = system: Influenza A virus; test: Anti-influenza activity against Influenza A virus A/Goose/Guangdong/SH7/2013 (H5N1) infected in chicken embryo fibroblast at MOI 1 assessed as decrease in ratio of cytoplasmic to nuclear NP level at 10 uM measured after 10 hr post infection by Western blot analysis; format: functional, organism-based
[21] = target: Single-stranded DNA cytosine deaminase (Homo sapiens) (UniProt Q9GZX7); test: Induction of GFP-tagged AID degradation in human A549 cells at 20 uM; format: cell-based
Chain of Single-stranded DNA cytosine deaminase (Homo sapiens) (Q9GZX7 whole entry): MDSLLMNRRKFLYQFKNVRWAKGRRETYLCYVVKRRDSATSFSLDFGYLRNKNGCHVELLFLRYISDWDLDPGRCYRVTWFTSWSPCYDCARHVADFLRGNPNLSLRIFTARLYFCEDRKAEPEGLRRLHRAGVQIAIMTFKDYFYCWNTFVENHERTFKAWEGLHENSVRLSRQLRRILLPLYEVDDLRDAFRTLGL

Compound	Activity [1]	inhibition (INH) [2]	pEC50 [3]	percent cell viability relative to control at 50 µM [4]	pEC50 [5]	pEC50 [6]	pEC50 [7]	pEC50 [8]	pEC50 [9]	CC50 [10]	pEC50 [11]	other results
COc1cccc(OC)c1/C=C/C(=O)/C=C/c1ccc(-c2ccncc2)cc1	153.71%	26.05%										
CCC(CC)O[C@@H]1C=C(C(=O)O)C[C@H](N)[C@H]1NC(C)=O [OSELTAMIVIR CARBOXYLATE]	105.08%	98.5% and 97.3%	5.97	100%	5.19	5.51	5.24	6.01	5.61	> 100 µM	< 4.00	
COc1cccc(OC)c1/C=C/C(=O)/C=C/c1ccc(N2CCOCC2)cc1		96.62%	5.43	102%	5.02	5.14	4.83	5.32	5.50	> 100 µM	5.34	Kd [12]: Not Active; Activity [13]: Active; pKd [14]: 6.62; Kd [15]: Not Active; Activity [16]: Active; inhibition [17]: inactive; Activity [18]: Active; inhibition [19]: inactive; Activity [20]: Active; Activity [21]: Active
